Test results published in patent US20240368122A1, “JAK2 INHIBITORS AND METHODS OF USE THEREOF” (RELAY THERAPEUTICS, INC., priority 2021, published 2024).
Read-outs that look alike come from different tables or passages of the source.

Experiments:
[1] = test system: TF1 JAK2 V617F STAT5 reporter; assay: Cellular TF1 STAT5 assay (luciferase reporter), JAK2 V617F; type: cell-based; conditions: read-out: Cell PD TF1 V617F STAT5 (IC50)
Method in brief: (§1)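 Inhibition of JAK2 V617F-mediated STAT3/STAT5 signalling is measured by reporter luminescence in TF1 erythroleukemia cells treated overnight (18-20 h) with a 10-point compound series; DMSO serves as vehicle.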

[2] = target: T1, JAK2 JH2 WT (V536-D812) [W659A, W777A, F794H solubilizing mutations] (Homo sapiens, UniProt O60674, F794H/W659A/W777A); assay: Surface Plasmon Resonance (SPR) binding assay, JAK2 JH2 domain
T1 construct: **JAK2 JH2 WT (V536-D812) [W659A, W777A, F794H solubilizing mutations]; C-thrombin-avi-His6; thrombin cleavage site (C); His6 (C); purchased Biortus
Method in brief: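 Kinetics came from 1:1 fits of single-cycle runs at 20 °C: four 3-fold dilutions from 5 uM for JH1 or 500 nM for JH2, 60 s association, and 300 s or 1200 s dissociation respectively. Protein was freshly captured per compound in the presence of 10 uM stabilizer compound, with running buffer of pH 7.5 HEPES/NaCl/glycerol/DTT plus 2% DMSO.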

[3] = test system: TF1 JAK2 V617F STAT3 reporter; assay: Cellular TF1 STAT3 assay (luciferase reporter), JAK2 V617F; type: cell-based; conditions: read-out: Cell PD-TF1 JAK2 V617F STAT3 (IC50)
Method in brief: as §1

[4] = Homo sapiens, TF-1, TF1 cells, JAK2 V617F

T1 sequence (O60674 536-812 W659A/W777A/F794H): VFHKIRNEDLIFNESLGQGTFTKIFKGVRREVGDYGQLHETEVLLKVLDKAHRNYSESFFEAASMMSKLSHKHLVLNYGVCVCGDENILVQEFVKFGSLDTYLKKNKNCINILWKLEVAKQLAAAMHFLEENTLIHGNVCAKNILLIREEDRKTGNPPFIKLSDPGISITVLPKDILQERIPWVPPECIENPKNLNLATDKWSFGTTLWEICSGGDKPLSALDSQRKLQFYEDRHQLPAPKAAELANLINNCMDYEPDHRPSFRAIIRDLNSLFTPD

Structure (SMILES) | IC50 ([1]; TF1 JAK2 V617F) | Kd ([2]; SPR, JAK2 JH2 domain) | IC50 ([3]; TF1 JAK2 V617F) | IC50 [1, 4] | Kd [2] | IC50 [3, 4]
CNC(=O)c1nnc(NC(=O)C2CC2)cc1Nc1cccc(-c2ccc(C(=O)N(C)Cc3ccn(C)n3)nn2)c1OC [Compound 76] | 500 to 5000 nM | 0.01 to 10 nM | 500 to 5000 nM | – | – | –
CNC(=O)c1nnc(NC(=O)C2CC2)cc1Nc1cccc(-c2ccc(C(=O)N(C)Cc3cnn(C(F)F)c3C)nc2)c1OC [Compound 298] | – | – | – | 500 to 5000 nM | 0.01 to 10 nM | 500 to 5000 nM
CNC(=O)c1nnc(NC(=O)C2CC2)cc1Nc1ccc(C)c(-c2ccc(C(=O)N(C)Cc3cc(C#N)ccn3)cc2)c1OC [Compound 103] | 500 to 5000 nM | 0.01 to 10 nM | 50 to 500 nM | – | – | –
CNC(=O)c1nnc(NC(=O)C2CC2)cc1Nc1cccc(-c2cnn(C3CN(Cc4cccnc4)C3)c2)c1OC [Compound 89] | 50 to 500 nM | 0.01 to 10 nM | 50 to 500 nM | – | – | –
CNC(=O)c1nnc(NC(=O)C2CC2)cc1Nc1cccc(-c2cnn(C3CN(Cc4cccnc4C#N)C3)c2)c1OC [Compound 212] | – | – | – | 50 to 500 nM | 0.01 to 10 nM | 50 to 500 nM
CNC(=O)c1nnc(NC(=O)C2CC2)cc1Nc1cccc(-c2cnn(C3CN(Cc4cccnn4)C3)c2)c1OC [Compound 109] | 50 to 500 nM | 0.01 to 10 nM | 50 to 500 nM | – | – | –
CNC(=O)c1nnc(NC(=O)C2CC2)cc1Nc1cccc(-c2ccc(C(=O)N(C)[C@H](C)c3ccn(C)n3)nc2)c1OC (single isomer, unassigned) [Compound 161] | 500 to 5000 nM | 0.01 to 10 nM | 500 to 5000 nM | – | – | –
CNC(=O)c1nnc(NC(=O)C2CC2)cc1Nc1cccc(-c2cnn(C3CN(Cc4cccc(C(=O)O)n4)C3)c2)c1OC [Compound 312] | – | – | – | 5000 to 100000 nM | 0.01 to 10 nM | 5000 to 100000 nM
CNC(=O)c1nnc(NC(=O)C2CC2)cc1Nc1cccc(-c2ccc(C(=O)N3CCc4cnn(C)c4C3)nc2)c1OC [Compound 120] | 5000 to 100000 nM | 0.01 to 10 nM | 5000 to 100000 nM | – | – | –
CNC(=O)c1nnc(NC(=O)C2CC2)cc1Nc1cccc(-c2cn([C@H]3CN(Cc4cccc(C)n4)[C@@H]3C)nn2)c1OC (stereo in doubt) [Compound 235] | – | – | – | 50 to 500 nM | 0.01 to 10 nM | 50 to 500 nM
CNC(=O)c1nnc(NC(=O)C2CC2)cc1Nc1cccc(-c2cnn(C3CN(Cc4cccc(C(=O)N5CCCC5)n4)C3)c2)c1OC [Compound 356] | – | – | – | 10 to 50 nM | 0.01 to 10 nM | 10 to 50 nM
CNC(=O)c1nnc(NC(=O)C2CC2)cc1Nc1cccc(-c2cnn(C3CN(Cc4cccn5ccnc45)C3)c2)c1OC [Compound 373] | – | – | – | 50 to 500 nM | 0.01 to 10 nM | 50 to 500 nM
CNC(=O)c1nnc(NC(=O)C2CC2)cc1Nc1cccc(-c2cnn(C3CN([C@H](C)c4ccccn4)C3)c2)c1OC (single isomer, unassigned) [Compound 163] | 5000 to 100000 nM | 0.01 to 10 nM | 500 to 5000 nM | – | – | –
CNC(=O)c1nnc(NC(=O)C2CC2)cc1Nc1cccc(-c2cn(C3CN(Cc4cccc(C#N)n4)C3)nc2C)c1OC [Compound 185] | 500 to 5000 nM | 0.01 to 10 nM | 500 to 5000 nM | – | – | –
CNC(=O)c1nnc(NC(=O)C2CC2)cc1Nc1nccc(-c2cnn(C3CN(Cc4ccccn4)C3)c2)c1OC [Compound 218] | – | – | – | 500 to 5000 nM | 0.01 to 10 nM | 50 to 500 nM
[2H]C([2H])(c1cccnn1)N1CC(n2cc(-c3cccc(Nc4cc(NC(=O)C5CC5)nnc4C(=O)NC)c3OC)cn2)C1 [Compound 408] | – | 0.01 to 10 nM | – | 50 to 500 nM | – | 50 to 500 nM
CNC(=O)c1nnc(NC(=O)C2CC2)cc1Nc1cccc(-c2cnn(C3CN(Cc4cccc(COC)n4)C3)c2)c1OC [Compound 216] | – | – | – | 50 to 500 nM | 0.01 to 10 nM | 50 to 500 nM
CNC(=O)c1nnc(NC(=O)C2CC2)cc1Nc1cccc(-c2ccc(NC(=O)Cc3cccn(C)c3=O)cc2)c1OC [Compound 2] | 5000 to 100000 nM | 0.01 to 10 nM | 5000 to 100000 nM | – | – | –

Structure (SMILES) | IC50 ([1]; TF1 JAK2 V617F) | Kd ([2]; SPR, JAK2 JH2 domain) | IC50 ([3]; TF1 JAK2 V617F) | IC50 [1, 4] | Kd [2] | IC50 [3, 4]
CNC(=O)c1nnc(NC(=O)C2CC2)cc1Nc1cccc(-c2ccc(C(=O)N(C)C[C@@H]3CCCC3(F)F)nc2)c1OC (single isomer, unassigned) [Compound 225] | – | – | – | 5000 to 100000 nM | 10 to 50 nM | 5000 to 100000 nM
CNC(=O)c1nnc(NC(=O)C2CC2)cc1Nc1cccc(C(=O)N[C@@H](C)C2CN(Cc3ccccn3)C2)c1OC (single isomer, unassigned) [Compound 245] | – | – | – | 5000 to 100000 nM | 50 to 500 nM | 5000 to 100000 nM
CNC(=O)c1nnc(NC(=O)C2CC2)cc1Nc1cccc(-c2cnn(C3CN(CC4(C#N)CC4)C3)c2)c1OC [Compound 121] | 5000 to 100000 nM | 0.01 to 10 nM | 500 to 5000 nM | – | – | –
CNC(=O)c1nnc(NC(=O)C2CC2)cc1Nc1cccc(-c2cnn(C3CN(Cc4cccc5c(F)cnn45)C3)c2)c1OC [Compound 381] | – | – | – | 50 to 500 nM | 0.01 to 10 nM | 50 to 500 nM
CNC(=O)c1nnc(NC(=O)C2CC2)cc1Nc1cccc(-c2cnn([C@H]3C[C@@H](N(C)c4ccccn4)C3)c2)c1OC [Compound 383] | – | – | – | 5000 to 100000 nM | 0.01 to 10 nM | 5000 to 100000 nM
CNC(=O)c1nnc(NC(=O)C2CC2)cc1Nc1cccc(-c2cnn(C3CN(Cc4cccc(C(=O)N(C)C)n4)C3)c2)c1OC [Compound 275] | – | – | – | 10 to 50 nM | 0.01 to 10 nM | 10 to 50 nM
CNC(=O)c1nnc(NC(=O)C2CC2)cc1Nc1cccc(-c2ccc(C(=O)N(C)Cc3cccnn3)nc2)c1OC [Compound 45] | 500 to 5000 nM | 0.01 to 10 nM | 500 to 5000 nM | – | – | –
CNC(=O)c1nnc(NC(=O)C2CC2)cc1Nc1cccc(-c2cnn(C3CN(Cc4nccc(C)n4)C3)c2)c1OC [Compound 77] | 500 to 5000 nM | 0.01 to 10 nM | 50 to 500 nM | – | – | –
CNC(=O)c1nnc(NC(=O)C2CC2)cc1Nc1cccc(-c2ccc(C(=O)N(C)Cc3c(C)nn(C)c3C)nc2)c1OC [Compound 168] | 50 to 500 nM | 0.01 to 10 nM | 50 to 500 nM | – | – | –
CNC(=O)c1nnc(NC(=O)C2CC2)cc1Nc1cccc(-c2ccc(C3CN(Cc4cc(C#N)ccn4)C3)nc2)c1OC [Compound 279] | – | – | – | 5000 to 100000 nM | 10 to 50 nM | 5000 to 100000 nM
CNC(=O)c1nnc(NC(=O)C2CC2)cc1Nc1cccc(-c2cnn(C3CN(Cc4cccnc4Cl)C3)c2)c1OC [Compound 169] | 50 to 500 nM | 0.01 to 10 nM | 50 to 500 nM | – | – | –
CNC(=O)c1nnc(NC(=O)C2CC2)cc1Nc1cccc(-c2ccc(C(=O)N(C)Cc3ccc(N(C)C)nc3)nc2)c1OC [Compound 93] | 500 to 5000 nM | 10 to 50 nM | 500 to 5000 nM | – | – | –
CNC(=O)c1nnc(NC(=O)C2CC2)cc1Nc1cccc(-c2cnn(C3CN(Cc4cccc(Br)n4)C3)c2)c1OC [Compound 201] | – | – | – | 50 to 500 nM | 0.01 to 10 nM | 50 to 500 nM
CNC(=O)c1nnc(NC(=O)C2CC2)cc1Nc1cccc(-c2ccc(C3CN(Cc4cc(S(C)(=O)=O)ccn4)C3)nc2)c1OC [Compound 330] | – | – | – | 500 to 5000 nM | 0.01 to 10 nM | 500 to 5000 nM
CNC(=O)c1nnc(NC(=O)C2CC2)cc1Nc1cccc(-c2ccc(C(=O)N(C)[C@H](C)c3nc(C)no3)nc2)c1OC (single isomer, unassigned) [Compound 65] | 500 to 5000 nM | 0.01 to 10 nM | 500 to 5000 nM | – | – | –
CNC(=O)c1nnc(NC(=O)C2CC2)cc1Nc1cccc(-c2cnn([C@@H]3CN(Cc4cccnn4)[C@H]3C)c2)c1OC (stereo in doubt) [Compound 323] | – | – | – | 500 to 5000 nM | 0.01 to 10 nM | 500 to 5000 nM
CNC(=O)c1nnc(NC(=O)C2CC2)cc1Nc1cccc(-c2ccc(C(=O)N(C)Cc3cccn(C)c3=O)nc2OC)c1OC [Compound 25] | 500 to 5000 nM | 0.01 to 10 nM | 500 to 5000 nM | – | – | –
